Measurements taken from US12414960B2, “Analogues of oleuropein and oleacein and uses thereof” (Attica Sciences Ltd., priority 2020, dated 2025).
Values belong to the compound of their own block, whether it stands above or below them.

Legend:
[1] = target: ACLY (Homo sapiens, UniProt P53396); conditions: description of the Tocris compound; read-out: IC50 as ACLY inhibitor; cited from earlier work
[2] = tested on: TNF-α; test: ELISA of TNF-α in PMA/LPS-treated THP-1 cells; type: cell-based, human; conditions: THP-1, PMA then LPS 100 ng/ml 24 hours, 5 uM compound added 2 hours before LPS
Description: (§1) Human monocytes (THP-1, ATCC) were cultured in RPMI 1640 media supplemented with HEPES buffer (10 mM), sodium pyruvate (1 mM), glucose (4.5 g/L), fetal bovine serum (10%), penicillin (100 U/mL), streptomycin (100 μg/mL), and 2-mercaptoethanol (0.05 mM). THP-1 cells were treated with PMA (100 ng/ml) for 48 hours and then washed and rested for 24 hours in PMA-free media. These cells were treated with LPS (100 ng/ml) for 24 hours in the presence or absence of 5 uM of […] compounds (added 2 hours before LPS). Cell culture supernatants were collected and IL-1β (cat. No DLB50, R&D Systems), TNF-α (cat. no. DTA00D, R&D Systems) and IL-6 (cat. No D6050, R&D Systems) protein levels were evaluated by ELISA assay.

[3] = tested on: IL-6; test: ELISA of IL-6 in PMA/LPS-treated THP-1 cells; type: cell-based, human; conditions: THP-1, PMA then LPS 100 ng/ml 24 hours, 5 uM compound added 2 hours before LPS
Description: as §1

[4] = tested on: pACLY (S455); test: ELISA of pACLY (S455) / ACLY enzymatic activity in PANC-1 cells; type: cell-based, human; conditions: 5 μM
Description: ELISA assay was used to evaluate the effect of GS compounds on protein activity levels in PANC-1 cancer cells. PANC-1 cells were serum-starved overnight and then treated with rIGF1 (100 ng/mL) for 24 hours, with or without GS27 (5 μM). The levels of the following proteins were evaluated by ELISA assay: a) p70 S6 (T389) (cat no. 54164C, Cell Signaling); b) pAKT (S473), (cat no. 80895, Cell Signaling); c) pACLY (S455), (cat no. okag1672, Avivasysbio); d) pAMPK (T172) (cat no. 7959C, Cell Signaling) and e) p65/NFKB (S536), (cat no. 7173, Cell Signaling).
PANC-1 is a human pancreatic ductal adenocarcinoma cell line derived from the carcinoma of a person.
The molecular mechanism of action of GS27, a compound that has exerted potent anti-cancer activity in different cancer cell lines including pancreatic cancer cells, was investigated. Oleacein has been implicated to have anti-inflammatory and metabolic effects, thus the potential effects of GS27 in different metabolic and inflammatory pathways were evaluated. Specifically, the protein levels of p70 S6 (T389), pAKT (S473), pACLY (S455), pAMPK (T172) and p65/NFKB (S536) were evaluated by ELISA assay in PANC-1 pancreatic cancer cells treated with 5 μM GS27. GS27 reduced p70 S6 and AKT phosphorylation levels, while it increased AMPK phosphorylation.
The effects of different GS compounds on ACLY enzymatic activity were evaluated by ELISA assay in PANC-1 pancreatic cancer cells. […] This finding is unexpected, since GS21 has a very similar structure with GS27, with the only difference being the presence of an oxygen atom in ester GS21 instead of a sulfur atom in thioester GS27.

[5] = tested on: IL-1β; test: ELISA of IL-1β in PMA/LPS-treated THP-1 cells; type: cell-based, human; conditions: THP-1, PMA then LPS 100 ng/ml 24 hours, 5 uM compound added 2 hours before LPS
Description: as §1

[6] = Deoxyribose degradation assay (hydroxyl radical scavenging); type: biochemical; conditions: NS = not statistically significant
How it was run: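 Hydroxyl radicals from Fenton's reaction degrade 2-deoxyribose. Scavenging is measured as inhibition of this oxidation, read spectrophotometrically as pink chromogen absorbance at 532 nm.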

[7] = tested on: MCF-7 ER+ breast cancer cells; test: XTT cell growth assay, MCF-7 ER+; type: cell-based, human; conditions: NS = not statistically significant
How it was run: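 MCF-7 ER+ cells grown 24 h in DMEM, then given 5, 10 or 50 μM compound in serum-free DMEM for 24 h. XTT reagent added for 4 h. Absorbance read at 450 nm with 630 nm reference; serum-free DMEM alone as negative control.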

[8] = after olive oil consumption, literature; cited from earlier work
[9] = tested on: HepG2 liver cancer tumor; test: HepG2 xenograft mouse model; type: in vivo, nu/nu mice; conditions: 20 mg/kg i.p. every 5 days, until 20 days post-treatment
Description: The effect of GS27 on liver cancer tumor growth in mice was evaluated in a HepG2 xenograft mouse model. HepG2 is a human liver cancer cell line, obtained from ATCC (cat. No HB-8065). Since hepatocellular carcinoma is often treated with the chemotherapeutic agent doxorubicin and embolization, results were compared to those obtained with doxorubicin.
Xenograft tumors were generated by injecting HepG2 liver cancer cells (2.5×10^6) into the right flank of female nu/nu mice (Charles River Laboratories). All mice developed tumors in 10 days with size of approximately 100 mm3. For each experiment, mice were randomly distributed into equal groups (4 mice per group) that were untreated, or treated by intraperitoneal injections every 5 days with 20 mg/kg GS27 or doxorubicin. Tumor volume (average, SD) was evaluated until 20 days post-treatment.

[10] = tested on: LNCaP prostate cancer cells; conditions: literature; cited from earlier work

Chain of ACLY (P53396 whole entry): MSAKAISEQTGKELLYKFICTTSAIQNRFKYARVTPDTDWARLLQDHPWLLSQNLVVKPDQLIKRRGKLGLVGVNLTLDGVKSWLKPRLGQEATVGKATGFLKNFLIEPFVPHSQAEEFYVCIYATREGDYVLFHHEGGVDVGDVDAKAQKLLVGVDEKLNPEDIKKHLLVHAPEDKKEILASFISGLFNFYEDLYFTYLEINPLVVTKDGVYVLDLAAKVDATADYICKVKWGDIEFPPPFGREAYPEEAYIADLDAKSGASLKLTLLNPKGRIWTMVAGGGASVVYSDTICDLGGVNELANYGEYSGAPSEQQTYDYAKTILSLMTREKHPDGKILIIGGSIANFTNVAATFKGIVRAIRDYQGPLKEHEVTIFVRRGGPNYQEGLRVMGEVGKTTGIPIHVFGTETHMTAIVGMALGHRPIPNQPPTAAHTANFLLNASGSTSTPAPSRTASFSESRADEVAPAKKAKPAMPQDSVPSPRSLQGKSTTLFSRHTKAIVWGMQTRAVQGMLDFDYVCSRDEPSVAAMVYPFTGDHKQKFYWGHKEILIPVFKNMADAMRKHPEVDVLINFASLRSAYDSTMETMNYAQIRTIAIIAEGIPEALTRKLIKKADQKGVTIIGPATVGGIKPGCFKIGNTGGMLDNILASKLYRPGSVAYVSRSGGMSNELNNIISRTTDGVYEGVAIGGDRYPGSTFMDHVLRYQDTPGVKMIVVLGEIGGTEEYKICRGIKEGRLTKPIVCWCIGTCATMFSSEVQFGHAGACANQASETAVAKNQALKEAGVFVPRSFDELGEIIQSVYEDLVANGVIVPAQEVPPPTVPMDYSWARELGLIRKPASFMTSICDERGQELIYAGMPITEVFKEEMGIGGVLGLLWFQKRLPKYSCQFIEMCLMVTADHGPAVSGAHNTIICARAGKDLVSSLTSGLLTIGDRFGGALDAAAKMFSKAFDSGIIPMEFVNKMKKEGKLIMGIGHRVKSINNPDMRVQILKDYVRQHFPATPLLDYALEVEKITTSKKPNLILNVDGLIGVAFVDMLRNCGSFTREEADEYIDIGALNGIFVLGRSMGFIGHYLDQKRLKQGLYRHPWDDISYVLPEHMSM

Structure (SMILES): COc1ccc(-c2ccccc2)cc1NS(=O)(=O)c1cc(Cl)cc(Cl)c1O [BMS303141]
IC50 [1]: 130 nM

Deoxyribose Degradation Assay IC50 [6]: 16.2 μg extract/mL
Structure (SMILES): C/C=C(/C=O)[C@@H](CC=O)CC(=O)OCc1cc2ccccc2[nH]1 [GS25, (3S,4E)-4-formyl-3-(2-oxoethyl)-4-hexenoic acid (1H-indol-2-yl)methyl ester]
TNF-α protein levels [2]: better effect on the suppression | IL-6 protein levels [3]: effective for reducing | ACLY enzymatic activity (ELISA) [4]: small effect | IL-1β protein levels [5]: reducing substantially | Effectiveness to suppress MCF7 cell growth (cell growth inhibition) ([7]; 50 uM, 24 h): best efficacy | inhibition at 50 µM ([7]; Homo sapiens, MCF7, 24 h, read-out: Effectiveness to suppress MCF7 cell growth (cell growth inhibition)): 88.4%

Structure (SMILES): OCCc1ccc(O)c(O)c1 [Hydroxytyrosol]
time of peak plasma levels after ingestion [8]: 1 h

Structure (SMILES): COc1cccc2c1C(=O)c1c(O)c3c(c(O)c1C2=O)C[C@@](O)(C(=O)CO)C[C@@H]3O[C@H]1C[C@H](N)[C@H](O)[C@H](C)O1 [doxorubicin, reference compound]
reduction in the tumor size, HepG2 liver cancer [9]: 13%

Structure (SMILES): CNC(=O)c1ccc(N2C(=S)N(c3ccc(C#N)c(C(F)(F)F)c3)C(=O)C2(C)C)cc1F [enzalutamide]
concentration found to reduce LNCaP prostate cancer cell growth [10]: 10 µM

Structure (SMILES): OCCc1ccc(O)cc1 [tyrosol]
time of peak plasma levels after ingestion [8]: 1 h
